Key:
Assay type in all cases: in vivo, human
[1] = Study B: single and multiple dose pharmacokinetics after 20-minute intravenous infusion of 24 mg methylnaltrexone; conditions: 24 mg IV infusion; for t1/2 / AUC0-6: day not given; for AUC0-6: mean; for Metabolite ÷ MNTX Ratio / R (IV), accumulation factor: AUCinf used
Procedure: (§1) Presented herein is a clinical pharmacokinetics study, Study C, as well as Studies A and B. Study A investigated the single and multiple dose pharmacokinetics of methylnaltrexone (MNTX) and its metabolites (M2: methylnaltrexone sulfate; M4: 6α-methylnaltrexol; and M5: 6β-methylnaltrexol) following the subcutaneous administration of 12 mg methylnaltrexone. In Study B, the single and multiple dose pharmacokinetics of methylnaltrexone (MNTX) and its metabolites (M2, M4, and M5) were examined following a 20-minute short intravenous infusion of 24 mg of methylnaltrexone (MNTX).
(§2) Pharmacokinetic parameters included Cmax, AUCt, AUCinf, tmax, t1/2, % Re24, accumulation factor (R) as defined below and metabolite/parent drug ratio.
(§3) R=Accumulation Factor(based on AUC0-24(ng·h/mL):Day 7 AUC AUC0-24/Day 1 AUC0-24
(§4) Metabolite-Parent Drug ratio(based on ng·h/mL)(%)=100*(Metabolite AUC24/MNTX AUC24)
(§5) Note: AUCinf was used in place of AUC AUC0-24 for R and Metabolite-Parent Drug ratio computations following IV administration.

[2] = Study A: single and multiple dose pharmacokinetics after subcutaneous 12 mg methylnaltrexone; conditions: 12 mg SC Injection; for t1/2: day not given, harmonic mean; for R (SC), accumulation factor: AUC0-24 on Day 7/AUC0-24 on Day 1
Procedure: as §1, §2, §3, §4, §5

[3] = Study C: single and multiple dose pharmacokinetics of MNTX and metabolites, MNTX 450 mg PO x 7 days; conditions: for t1/2 / AUC0-24 / AUCinf / Cmax / Tmax / Metabolite/MNTX Ratio / R (PO), accumulation factor: 450 mg Tablets oral; for Metabolite/MNTX Ratio: 100*(Metabolite AUC24/MNTX AUC24); for R (PO), accumulation factor: AUC0-24 on Day 7/AUC0-24 on Day 1; for metabolite to MNTX ratios following oral administration: day and AUC basis not stated
Procedure: as §1
In addition, the urinary elimination of MNTX was characterized.
as §2, §3, §4, §5

| Compound | AUCinf ([1]; Day 1, mean) [ng·h/mL] | Cmax ([1]; Day 1, mean) [ng/mL] | AUCinf ([1]; Day 7, mean) [ng·h/mL] | Cmax ([1]; Day 7, mean) [ng/mL] | t1/2 [1] [h] | AUC0-6 [1] [ng·h/mL] | Metabolite ÷ MNTX Ratio [1] [%] | R (IV), accumulation factor [1] | Metabolite/MNTX Ratio ([2]; Day 1) [%] | AUC0-24 ([2]; Day 1, mean) [ng·h/mL] | AUCinf ([2]; Day 1, mean) [ng·h/mL] | Cmax ([2]; Day 1, mean) [ng/mL] | Tmax ([2]; Day 1, median) [h] | Metabolite/MNTX Ratio ([2]; Day 7) [%] | AUC0-24 ([2]; Day 7, mean) [ng·h/mL] | AUCinf ([2]; Day 7, mean) [ng·h/mL] | Cmax ([2]; Day 7, mean) [ng/mL] | Tmax ([2]; Day 7, median) [h] | t1/2 [2] [h] | R (SC), accumulation factor [2] | also measured |
| --- | --- | --- | --- | --- | --- | --- | --- | --- | --- | --- | --- | --- | --- | --- | --- | --- | --- | --- | --- | --- | --- |
| C[N@+]1(CC2CC2)CC[C@]23c4c5ccc(O)c4O[C@H]2[C@H](O)CC[C@@]3(O)[C@H]1C5 [M5, 6β-methylnaltrexol] | 35.10 | 3.44 | 30.0 | 8.71 | 12.3 | 12.3 | 8.69 | 2.91 | 6.58 | 14.41 | 18.5 | 1.17 | 2.0 | 8.72 | 19.51 | 19.5 | 1.42 | 2.0 | 8.13 | 1.42 | t1/2 ([3]; Day 1, harmonic mean): 18.40 h; AUC0-24 ([3]; Day 1, mean): 40.84 ng·h/mL; AUCinf ([3]; Day 1, mean): 73.61 ng·h/mL; Cmax ([3]; Day 1, mean): 3.48 ng/mL; Tmax ([3]; Day 1, median): 3.13 h; Metabolite/MNTX Ratio ([3]; Day 1): 15.10%; t1/2 ([3]; Day 7, harmonic mean): 28.65 h; AUC0-24 ([3]; Day 7, mean): 66.33 ng·h/mL; AUCinf ([3]; Day 7, mean): 120.87 ng·h/mL; Cmax ([3]; Day 7, mean): 4.89 ng/mL; Tmax ([3]; Day 7, median): 2.69 h; Metabolite/MNTX Ratio ([3]; Day 7): 21.41%; R (PO), accumulation factor [3]: 1.76; metabolite to MNTX ratios following oral administration [3]: 29.78% |
| methylnaltrexone sulfate [M2] | 162 | 16.6 | 176 | 37.70 | 5.70 | 72.3 | 46.60 | 2.61 | 28.71 | 61.34 | 71.9 | 6.34 | 4.00 | 29.30 | 66.3 | 66.3 | 5.70 | 4.00 | 5.57 | 1.13 | t1/2 ([3]; Day 1, harmonic mean): 7.19 h; AUC0-24 ([3]; Day 1, mean): 188.63 ng·h/mL; AUCinf ([3]; Day 1, mean): 216.89 ng·h/mL; Cmax ([3]; Day 1, mean): 17.15 ng/mL; Tmax ([3]; Day 1, median): 4.02 h; Metabolite/MNTX Ratio ([3]; Day 1): 72.69%; t1/2 ([3]; Day 7, harmonic mean): 13.87 h; AUC0-24 ([3]; Day 7, mean): 243.72 ng·h/mL; AUCinf ([3]; Day 7, mean): 320.51 ng·h/mL; Cmax ([3]; Day 7, mean): 21.00 ng/mL; Tmax ([3]; Day 7, median): 4.02 h; Metabolite/MNTX Ratio ([3]; Day 7): 79.11%; R (PO), accumulation factor [3]: 1.30; metabolite to MNTX ratios following oral administration [3]: 81.0% |
| C[N@+]1(CC2CC2)CC[C@]23c4c5ccc(O)c4O[C@H]2[C@@H](O)CC[C@@]3(O)[C@H]1C5 [M4, 6α-methylnaltrexol] | 61.30 | 11.0 | 54.0 | 18.10 | 12.28 | 28.8 | 14.90 | 2.08 | 15.81 | 34.66 | 38.3 | 4.64 | 1.0 | 18.75 | 41.86 | 41.9 | 4.33 | 1.0 | 7.59 | 1.25 | t1/2 ([3]; Day 1, harmonic mean): 17.48 h; AUC0-24 ([3]; Day 1, mean): 79.73 ng·h/mL; AUCinf ([3]; Day 1, mean): 124.23 ng·h/mL; Cmax ([3]; Day 1, mean): 9.01 ng/mL; Tmax ([3]; Day 1, median): 2.0003 h; Metabolite/MNTX Ratio ([3]; Day 1): 29.70%; t1/2 ([3]; Day 7, harmonic mean): 31.85 h; AUC0-24 ([3]; Day 7, mean): 119.61 ng·h/mL; AUCinf ([3]; Day 7, mean): 221.13 ng·h/mL; Cmax ([3]; Day 7, mean): 10.77 ng/mL; Tmax ([3]; Day 7, median): 2.0007 h; Metabolite/MNTX Ratio ([3]; Day 7): 38.50%; R (PO), accumulation factor [3]: 1.62; metabolite to MNTX ratios following oral administration [3]: 54.21% |
